# How the values were obtained:
# [1] = Spectroscopic evaluation of the flower water for chlorine dioxide; assay type: physicochemical; settings: third day of the tests; uncovered beakers, tap water
# Source text: As may be seen from the results set forth in Table 1, the roses in the beaker containing no chlorine dioxide had the shortest lifetime. […] Roses with less or more chlorine dioxide had intermediate lifetimes. […] This was not surprising since the beakers were uncovered and chlorine dioxide could readily escape or decompose.
# fresh red roses = assay: Cut flower life test: 5 fresh red roses per beaker of treated tap water, monitored daily for bloom death; assay type: in vivo, rose; settings: for Average Flower Life: 5 per beaker
# Experimental: In the following examples, test were conducted with fresh red roses obtained from a single source. The stems were cut (under water) and, for each experimental test, 5 roses were placed in a beaker. The same person monitored the flowers every day (the criterion for bloom death was that the monitor would have discarded the roses if the roses were in the monitor's home). Thereafter, the average flower life in days was calculated for each experimental condition.
# Five beakers of 800 ml tap water containing 0, 2, 5, 10 and 15 ppm chlorine dioxide were used for these tests.
# Example 1 was repeated using tap water alone, tap water containing 5 ppm chlorine dioxide, tap water containing “Aquaplus®” and tap water containing 5 ppm chlorine dioxide and “Aquaplus®”. “Aquaplus®” is described as a fresh flower nutrient and water clarifier and was obtained from Syndicate Sales, Kokomo, Ind.
compound,measurement,setting,value
"[O][Cl+][O-] [Chlorine Dioxide, chlorine dioxide]",Chlorine dioxide present in the flower water,[1],no chlorine dioxide was present
same,Average Flower Life,fresh red roses; 2 ppm chlorine dioxide in 800 ml tap water,5.6 days
same,Change of lifetime of the roses compared to no chlorine dioxide / plain water control,fresh red roses; 5 ppm chlorine dioxide,approximately doubled
same,Average Flower Life,fresh red roses; 5 ppm chlorine dioxide in 800 ml tap water,7.8 days
same,Average Flower Life,fresh red roses; 10 ppm chlorine dioxide in 800 ml tap water,5.8 days
same,Average Flower Life,fresh red roses; 15 ppm chlorine dioxide in 800 ml tap water,5.8 days
same,Flower Lifetime,"fresh red roses; Example 2, tap water containing 5 ppm ClO2",7.8 days
